According to paper PMC9686928, “10-mer and 9-mer WALK Peptides with Both Antibacterial and Anti-Inflammatory Activities” (Antibiotics, 2022):
Where no end group is shown, it is not given here.

How the values were obtained:
[1] = system: Escherichia coli ATCC 25922; experiment: microbe, parasite or virus in culture; type: cell-based; settings: Gram-negative; broth microdilution, Luria-Bertani broth, 1–64 μg/mL two-fold serial dilutions; triplicate
Protocol: (§1) The antimicrobial activity of each peptide was assessed against four strains, including two Gram-positive (Bacillus subtilis ATCC 6633 and Staphylococcus aureus ATCC 6538p) and two Gram-negative bacteria (Escherichia coli ATCC 25922 and Shigella dysentariae ATCC 9752) cultured in Luria-Bertani broth media. Antibacterial susceptibility was determined as the MIC value, which was measured using the standard broth microdilution method as described previously. […] Two conventional antibiotics, ampicillin and kanamycin, were used as controls to confirm antibiotic susceptibility. The tests were performed in triplicate, and the MIC values that were reproduced twice or thrice in the three independent measurements were employed to calculate the GM value.

[2] = system: Staphylococcus aureus ATCC 6538p; experiment: microbe, parasite or virus in culture; type: cell-based; settings: Gram-positive; broth microdilution, Luria-Bertani broth, 1–64 μg/mL two-fold serial dilutions; triplicate
Protocol: as §1

[3] = system: Shigella dysentariae ATCC 9752; experiment: microbe, parasite or virus in culture; type: cell-based; settings: Gram-negative; broth microdilution, Luria-Bertani broth, 1–64 μg/mL two-fold serial dilutions; triplicate
Protocol: as §1

[4] = system: Bacillus subtilis ATCC 6633; experiment: microbe, parasite or virus in culture; type: cell-based; settings: Gram-positive; broth microdilution, Luria-Bertani broth, 1–64 μg/mL two-fold serial dilutions; lowest concentration that completely inhibited growth; triplicate
Protocol: as §1

[5] = system: RAW264.7 cells; settings: at the concentrations tested, 16 h
Protocol: (§4) Macrophage cells seeded in 96-well cell culture plates at a density of 3 × 10^4 cells/well were incubated for 24 h, followed by treatment with LPS or individual WALK peptides and subsequent incubation for 16 h. Cell viability was then assessed by the conventional MTT assay. Briefly, the medium in each well was replaced with 100 μL of RPMI medium containing MTT (500 μg/mL). After 2 h of incubation, the medium was discarded and the insoluble formazan in each well was dissolved in 100 μL of DMSO with shaking. The absorbance of the solution at 550 nm was measured using a spectrophotometric microplate reader to determine the percentage of cell viability relative to that of control cells.

[6] = system: LPS-stimulated RAW264.7 cells; experiment: Nitric oxide (NO) production, Griess reaction assay; type: cell-based, murine; settings: LPS 100 ng/mL 16 h, compared with omiganan and WALK155.03 (8 μM)
Protocol: (§2) The macrophage cells were seeded (3 × 10^4 cells/well) and incubated in 96-well plates for 24 h, followed by pretreatments with the WALK peptides at designated concentrations for 5 min and subsequent stimulation with 100 ng/mL of LPS for 16 h. The nitrite concentration in the culture medium was determined using the Griess reaction assay. Briefly, the culture supernatant (100 μL) was mixed with an equal volume of Griess reagent (1% sulfanilamide, 0.1% N-1-naphthyl ethylenediamine) and incubated for 5 min. The absorbance of the resulting chromophoric azo-derivative molecules was measured at 550 nm using a microplate reader with a fresh culture medium as a blank. The amount of nitrite in each sample was determined using a standard curve generated using a range of dilutions of sodium nitrite solutions.

[7] = system: human red blood cells; settings: for MHC, minimal hemolytic concentration: lowest concentration showing 5% or more hemolysis, human red blood cells 10% v/v in PBS, 1 h, 1–64 μg/mL, A550, relative to 0.2% Triton X-100, triplicate
Protocol: Briefly, suspensions of human red blood cells (10% v/v in PBS) were treated for 1 h with various concentrations (1–64 μg/mL, two-fold serial dilutions) of peptides, followed by measurement of the absorbance of the supernatant at 550 nm. The relative attenuation was determined as the percentage of hemolysis compared to that of the blood suspension treated with 0.2% Triton X-100. The tests were performed in triplicate, and the average values of three independent measurements were recorded.

[8] = system: two Gram-positive and two Gram-negative bacterial strains; experiment: Antimicrobial assay, MICs over the four strains (geometric mean); type: cell-based, B. subtilis, S. aureus, E. coli, S. dysentariae; settings: for GM, geometric mean of MICs: geometric mean of the MICs against the four strains
Protocol: as §1

[9] = system: iNOS, COX-2 and pro-IL-1β in LPS-stimulated RAW264.7 cells; experiment: Immunoblot analysis of pro-inflammatory mediators; type: cell-based, murine; settings: peptide pretreatment 5 min, LPS 100 ng/mL 16 h, Western blot
Protocol: (§3) Figure 5 Anti-inflammatory effects of WALK244.04 peptide in Raw264.7 cells. The cells were pretreated with the peptide at indicated concentrations for 5 min, followed by stimulation with LPS (100 ng/mL) to induce inflammatory responses. (A) iNOS, COX-2, and pro-IL-1β expression levels were estimated by Western blot analysis after 16 h of LPS treatment. (B) The mRNA expression of IL-1β, IL-6, and TNF-α was determined by quantitative real-time PCR upon 3 h of stimulation with LPS. […] (C) The phosphorylation of STAT1 and TBK1 was examined by Western blot analysis at different time points after the LPS treatment.
as §3, with “Figure 6” for “Figure 5”, “of WALK243.04” for “of WALK244.04”, “PCR after” for “PCR upon”, “was analyzed” for “was examined”, “after” for “after the”
The cells were lysed using a RIPA buffer (iNtRON) containing protease and phosphatase inhibitor cocktails. The cell lysates were resolved using 10% SDS-PAGE and transferred to nitrocellulose membranes, which were blocked for 1 h at room temperature (approximately 23 °C) using phosphate-buffered saline with 0.01% Tween-20 (PBST, Merck Korea, Seoul, Korea) containing 10% fat-free dried milk. The blocked membranes were then incubated overnight with primary antibodies at 4 °C, followed by further incubation with horseradish peroxidase-conjugated secondary antibodies for 1 h at room temperature. The membranes were developed using the enhanced chemiluminescence (ECL) detection kit (Advansta, San Jose, CA, USA) and visualized using a luminescent image analyzer (Amersham imager 680, Cytiva Korea, Incheon, Korea).

[10] = system: LPS-stimulated J774A.1 cells; experiment: Nitric oxide (NO) production, Griess reaction assay; type: cell-based, murine; settings: LPS 100 ng/mL 16 h
Protocol: NT, non-treated; LPS, lipopolysaccharides. (A) Cytotoxicity was assessed using the MTT assay. […] (B) Anti-inflammatory potential deduced by NO assay.
as §2

[11] = system: J774A.1 cells; settings: peptides 8, 4 and 2 μM, 16 h
Protocol: (A) Cytotoxicity was assessed using the MTT assay. The cells were treated with lipopolysaccharides (LPS, 100 ng/mL) or peptides (8–2 μM, two-fold serial dilutions) for 16 h, followed by estimating the cell viability as the percentage of surviving cells compared to that of the control cells.
as §4

[12] = system: IL-1β, IL-6 and TNF-α mRNA in LPS-stimulated RAW264.7 cells; experiment: Quantitative real-time PCR of pro-inflammatory cytokines; type: cell-based, murine; settings: LPS 100 ng/mL 3 h, real-time qPCR
Protocol: as §3
Figure 6 Anti-inflammatory effects of WALK243.04 peptide in Raw264.7 cells. […] (B) The mRNA expression of IL-1β, IL-6, and TNF-α was determined by quantitative real-time PCR after 3 h of stimulation with LPS. […] (C) The phosphorylation of STAT1 and TBK1 was analyzed by Western blot analysis at different time points after LPS treatment.
The cells were stimulated with LPS (100 ng/mL) for 3 h in the presence or absence of peptide samples, and the total RNA was extracted using a HiGene™ Total RNA Prep Kit (BIOFACT, Daejeon, Korea). cDNA was synthesized from 500 ng of total RNA using a SuperiorScript III cDNA synthesis kit (Enzynomics, Daejeon, Korea). […] The resulting 2^−ΔΔCt value for each group was used to calculate the relative expression ratio of the detected mRNA.

[13] = system: phosphorylation of STAT1 and TBK1 in LPS-stimulated RAW264.7 cells; experiment: Immunoblot analysis of TRIF-dependent signaling; type: cell-based, murine; settings: Western blot
Protocol: as §3
TRIF-dependent signaling, which is triggered by association with internalized TLR4 upon stimulation by LPS, is known to be mediated by the phosphorylation of the downstream kinase TANK binding kinase-1 (TBK-1) to produce type-I interferons. These interferons induce the expression of downstream target genes via the phosphorylation of the transcription factor signal transducer and the activator of transcription-1 (STAT-1).
The cells were lysed using a RIPA buffer (iNtRON) containing protease and phosphatase inhibitor cocktails. […]

Row | Substance | MIC, E. coli [1] | MIC, S. aureus [2] | MIC, S. dysentariae [3] | MIC, B. subtilis [4] | cytotoxicity (MTT assay) [5] | NO inhibitory activity [6] | MHC, minimal hemolytic concentration [7] | GM, geometric mean of MICs [8] | COX-2 and pro-IL-1β expression [9] | iNOS expression [9] | NO inhibition at 8 μM ([10]; peptide 8 μM) | inhibitory effect against NO production ([10]; peptides 8, 4 and 2 μM, pretreatment 5 min, nitrite by Griess) | cytotoxicity (MTT assay) [11] | mRNA expression of IL-1β, IL-6 and TNF-α [12] | hemolytic activity ([7]; at concentrations under 64 μg/mL, human erythrocytes) | MIC values against the strains tested ([8]; against both Gram-positive and Gram-negative bacterial strains, summary) | TBK-1 phosphorylation ([13]; after 1 h of LPS treatment) | STAT-1 phosphorylation ([13]; after 4 h of LPS treatment)
1 | LLKWLKKWL-NH2 [WALK243.04] | 4 µg/mL | 4 µg/mL | 4 µg/mL | 4 µg/mL | did not demonstrate significant cytotoxicity | superior NO inhibition compared to other positive controls | 64 µg/mL | 4.0 µg/mL | less potent or weaker than those of WALK244.04 | less potent or weaker than those of WALK244.04 | – | – | – | – | – | – | – | –
2 | LLKWLKKWLK-NH2 [WALK244.04] | 4 µg/mL | 4 µg/mL | 8 µg/mL | 4 µg/mL | – | most potent NO inhibitory activity | 64 µg/mL | 4.8 µg/mL | downregulation | substantial downregulation | near-complete NO inhibition | dose-dependent inhibitory effect | no significant cytotoxicity | effectively suppressed | no significant hemolytic activity | approximately 4 μg/mL | attenuated | strong inhibition
